This is an account of results in US10526323B2, “Indazole and azaindazole substituted compounds as mGluR4 allosteric potentiators, compositions, and methods of treating neurological dysfunction” (Vanderbilt University, priority 2015, dated 2020).

Where only a bound is given, the exact number is not on record here.

As a reminder, the EC50 is the concentration at which the effect is half-maximal.

The assay deals with mGluR4 (UniProt Q14833). The assay is described as follows: mGluR4 potentiation assay: increase in response to an EC20 concentration of agonist (species not given). It counts as cell-based. The settings on record: EC50 for potentiation of mGluR4; table does not state human or rat. The gist of the method:
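Human mGluR4 was expressed in CHO cells read with a Ca2+-sensitive dye; rat mGluR4 was co-expressed with GIRK in […] read by thallium flux. Potentiation is the rise over agonist-alone response, with EC50 and maximal potentiation from non-linear fits.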
For the molecule `Cn1nc(C(=O)NC2CC(F)C2)c2ccc(Nc3n[nH]c4cccnc34)cc21` (stereo not drawn) [Example 175, N-(3-fluorocyclobutyl)-1-methyl-6-(1H-pyrazolo[4,3-b]pyridin-3-ylamino)indazole-3-carboxamide], the EC50 was 794 nM.

In the case of `Cn1nc(C(=O)NC2CCC2)c2ccc(Nc3n[nH]c4cccnc34)cc21` [Example 176, N-cyclobutyl-1-methyl-6-(1H-pyrazolo[4,3-b]pyridin-3-ylamino)indazole-3-carboxamide], the EC50 stood at 653 nM.

Consider `Cn1nc(C#N)c2ccc(Nc3n[nH]c4cccnc34)cc21` [Example 177, 1-methyl-6-(1H-pyrazolo[4,3-b]pyridin-3-ylamino)indazole-3-carbonitrile], for which the EC50 was found to be 467 nM.

For the molecule `Cc1cncc(-c2nn(C)c3cc(Nc4n[nH]c5cccnc45)ccc23)c1` [Example 178, N-(1-methyl-3-(5-methylpyridin-3-yl)-1H-indazol-6-yl)-1H-pyrazolo[4,3-b]pyridin-3-amine], the EC50 was determined as 4180 nM.

Turning to `Cn1nc(-c2ccc(=O)[nH]c2)c2ccc(Nc3n[nH]c4cccnc34)cc21` [Example 179, 5-[1-methyl-6-(1H-pyrazolo[4,3-b]pyridin-3-ylamino)indazol-3-yl]-1H-pyridin-2-one], the 50% effective concentration (EC50) was found to be 2720 nM.

`COc1ccc(-c2nn(C)c3cc(Nc4n[nH]c5cccnc45)ccc23)cn1` [Example 180, N-[3-(6-methoxy-3-pyridyl)-1-methyl-indazol-6-yl]-1H-pyrazolo[4,3-b]pyridin-3-amine]: the EC50 is over 10000 nM.

`Cn1nc(OCC2CCCCO2)c2ccc(Nc3n[nH]c4cccnc34)cc21` (stereo not drawn) [Example 181, N-(1-methyl-3-((tetrahydro-2H-pyran-2-yl)methoxy)-1H-indazol-6-yl)-1H-pyrazolo[4,3-b]pyridin-3-amine]: the EC50 was 87 nM.

Take `Cn1nc(OCC(F)(F)F)c2ccc(Nc3n[nH]c4cccnc34)cc21` [Example 182, N-(1-methyl-3-(2,2,2-trifluoroethoxy)-1H-indazol-6-yl)-1H-pyrazolo[4,3-b]pyridin-3-amine]: the EC50 worked out at 198 nM.

Consider `Cc1cc(COc2nn(C)c3cc(Nc4n[nH]c5cccnc45)ccc23)no1` [Example 183, N-(1-methyl-3-((5-methylisoxazol-3-yl)methoxy)-1H-indazol-6-yl)-1H-pyrazolo[4,3-b]pyridin-3-amine], for which the EC50 stood at 224 nM.

Take `Cn1nc(OCc2cccnc2)c2ccc(Nc3n[nH]c4cccnc34)cc21` [Example 184, N-(1-methyl-3-(pyridin-3-ylmethoxy)-1H-indazol-6-yl)-1H-pyrazolo[4,3-b]pyridin-3-amine]: the EC50 came to 83 nM.

Take `Cn1nc(OCC2CC2)c2ccc(Nc3n[nH]c4cccnc34)cc21` [Example 185, N-(3-(cyclopropylmethoxy)-1-methyl-1H-indazol-6-yl)-1H-pyrazolo[4,3-b]pyridin-3-amine]: the EC50 came out at 164 nM.

As to `Cn1nc(S(C)(=O)=O)c2ccc(Nc3n[nH]c4cccnc34)cc21` [Example 186, N-(1-methyl-3-(methylsulfonyl)-1H-indazol-6-yl)-1H-pyrazolo[4,3-b]pyridin-3-amine], the EC50 was 1880 nM.

In the case of `Cn1nc(S(C)(=O)=O)c2ccc(Nc3n[nH]c4nccnc34)cc21` [Example 187, N-(1-methyl-3-(methylsulfonyl)-1H-indazol-6-yl)-1H-pyrazolo[3,4-b]pyrazin-3-amine], the EC50 stood at 2360 nM.

Take `Cn1nc(OCC2CC2(F)F)c2ccc(Nc3n[nH]c4cccnc34)cc21` (stereo not drawn) [Example 188, N-[3-[(2,2-difluorocyclopropyl)methoxy]-1-methyl-indazol-6-yl]-1H-pyrazolo[4,3-b]pyridin-3-amine]: the EC50 was 112 nM.

`Cn1nc(OC2CCS(=O)(=O)CC2)c2ccc(Nc3n[nH]c4cccnc34)cc21` [Example 192, N-[3-(1,1-dioxothian-4-yl)oxy-1-methyl-indazol-6-yl]-1H-pyrazolo[4,3-b]pyridin-3-amine]: the EC50 amounted to 185 nM.

With `Cn1nc(OCC2(C)COC2)c2ccc(Nc3n[nH]c4cccnc34)cc21` [Example 194, N-[1-methyl-3-[(3-methyloxetan-3-yl)methoxy]indazol-6-yl]-1H-pyrazolo[4,3-b]pyridin-3-amine], the EC50 came out at 146 nM.

As for `Cn1nc(OCC2COC2)c2ccc(Nc3n[nH]c4cccnc34)cc21` [Example 195, N-[1-methyl-3-(oxetan-3-ylmethoxy)indazol-6-yl]-1H-pyrazolo[4,3-b]pyridin-3-amine], the EC50 worked out at 96.6 nM.

As for `Cn1nc(Oc2ccc(C#N)cn2)c2c(Cl)cc(Nc3n[nH]c4cccnc34)cc21` [Example 207, 6-[4-chloro-1-methyl-6-(1H-pyrazolo[4,3-b]pyridin-3-ylamino)indazol-3-yl]oxypyridine-3-carbonitrile], the EC50 was determined as 482 nM.

As to `Cn1nc(OCCN2CCOCC2)c2c(Cl)cc(Nc3n[nH]c4cccnc34)cc21` [Example 209, N-[4-chloro-1-methyl-3-(2-morpholinoethoxy)indazol-6-yl]-1H-pyrazolo[4,3-b]pyridin-3-amine], the EC50 stood at 322 nM.

With `Cn1nc(OC2COC2)c2ccc(Nc3n[nH]c4cccnc34)cc21` [Example 216, N-[1-methyl-3-(oxetan-3-yloxy)indazol-6-yl]-1H-pyrazolo[4,3-b]pyridin-3-amine], the concentration giving a half-maximal response (EC50) was found to be 629 nM.

As for `Cn1nc(OCCN2CCOCC2)c2ccc(Nc3n[nH]c4cccnc34)cc21` [Example 217, N-[1-methyl-3-(2-morpholinoethoxy)indazol-6-yl]-1H-pyrazolo[4,3-b]pyridin-3-amine], the EC50 amounted to 238 nM.

For `Cn1nc(-c2ccncc2)c2ccc(Nc3n[nH]c4cccnc34)cc21` [Example 218, N-[1-methyl-3-(4-pyridyl)indazol-6-yl]-1H-pyrazolo[4,3-b]pyridin-3-amine], the EC50 turned out to be 871 nM.

On to `Cn1nc(OC2CCOCC2)c2ccc(Nc3n[nH]c4cccnc34)cc21` [Example 225, N-(1-methyl-3-((tetrahydro-2H-pyran-4-yl)oxy)-1H-indazol-6-yl)-1H-pyrazolo[4,3-b]pyridin-3-amine], for which the EC50 amounted to 46 nM.

Consider `Cn1nc(Oc2cccc(C#N)n2)c2ccc(Nc3n[nH]c4cccnc34)cc21` [Example 231, 6-((6-((1H-pyrazolo[4,3-b]pyridin-3-yl)amino)-1-methyl-1H-indazol-3-yl)oxy)picolinonitrile], for which the EC50 was 119 nM.

For the molecule `Cn1nc(Oc2ccc(C#N)cn2)c2ccc(Nc3n[nH]c4cccnc34)cc21` [Example 237, 6-((6-((1H-pyrazolo[4,3-b]pyridin-3-yl)amino)-1-methyl-1H-indazol-3-yl)oxy)nicotinonitrile], the half-maximal effective concentration (EC50) was determined as 157 nM.

As for `Cn1nc(OCc2ccncc2)c2ccc(Nc3n[nH]c4cccnc34)cc21` [Example 238, N-(1-methyl-3-(pyridin-4-ylmethoxy)-1H-indazol-6-yl)-1H-pyrazolo[4,3-b]pyridin-3-amine], the EC50 came to 65.8 nM.

With `CCCOc1nn(C)c2cc(Nc3n[nH]c4cccnc34)ccc12` [Example 239, N-(1-methyl-3-propoxy-1H-indazol-6-yl)-1H-pyrazolo[4,3-b]pyridin-3-amine], the EC50 came to 171 nM.

`[2H]C([2H])([2H])Oc1nn(C)c2cc(Nc3n[nH]c4cccnc34)ccc12` [Example 240, N-(3-(methoxy-d3)-1-methyl-1H-indazol-6-yl)-1H-pyrazolo[4,3-b]pyridin-3-amine]: the EC50 was 294 nM.

For `[2H]C([2H])(C)Oc1nn(C)c2cc(Nc3n[nH]c4cccnc34)ccc12` [Example 241, N-(3-(ethoxy-1,1-d2)-1-methyl-1H-indazol-6-yl)-1H-pyrazolo[4,3-b]pyridin-3-amine], the EC50 amounted to 356 nM.

Consider `CC(C)COc1nn(C)c2cc(Nc3n[nH]c4cccnc34)ccc12` [Example 244, N-(3-isobutoxy-1-methyl-1H-indazol-6-yl)-1H-pyrazolo[4,3-b]pyridin-3-amine], for which the EC50 was determined as 231 nM.

Turning to `c1cnc2c(Nc3ccc4c(C5CC5)n[nH]c4c3)n[nH]c2c1` [Example 247, N-(3-cyclopropyl-1H-indazol-6-yl)-1H-pyrazolo[4,3-b]pyridin-3-amine], the EC50 was found to be 452 nM.

As for `Cc1nn(CC(F)(F)F)c2ncc(Nc3n[nH]c4cccnc34)cc12` [Example 253, 3-methyl-N-(1H-pyrazolo[4,3-b]pyridin-3-yl)-1-(2,2,2-trifluoroethyl)pyrazolo[3,4-b]pyridin-5-amine], the EC50 was 240 nM.

Consider `Cc1nn(C2CCCC2)c2ncc(Nc3n[nH]c4cccnc34)cc12` [Example 254, 1-cyclopentyl-3-methyl-N-(1H-pyrazolo[4,3-b]pyridin-3-yl)pyrazolo[3,4-b]pyridin-5-amine], for which the EC50 was over 10000 nM.

Consider `Cc1nn(CCCO)c2ncc(Nc3n[nH]c4cccnc34)cc12` [Example 255, 3-[3-methyl-5-(1H-pyrazolo[4,3-b]pyridin-3-ylamino)pyrazolo[3,4-b]pyridin-1-yl]propan-1-ol], for which the EC50 is over 30000 nM.

With `Cc1nn(CCO)c2ncc(Nc3n[nH]c4cccnc34)cc12` [Example 256, 2-[3-methyl-5-(1H-pyrazolo[4,3-b]pyridin-3-ylamino)pyrazolo[3,4-b]pyridin-1-yl]ethanol], the EC50 is over 10000 nM.

As to `Cc1nn(CC2CC2)c2ncc(Nc3n[nH]c4cccnc34)cc12` [Example 257, 1-(cyclopropylmethyl)-3-methyl-N-(1H-pyrazolo[4,3-b]pyridin-3-yl)pyrazolo[3,4-b]pyridin-5-amine], the EC50 is over 10000 nM.

As for `CCn1nc(C)c2cc(Nc3n[nH]c4cccnc34)cnc21` [Example 258, 1-ethyl-3-methyl-N-(1H-pyrazolo[4,3-b]pyridin-3-yl)pyrazolo[3,4-b]pyridin-5-amine], the EC50 came to 480 nM.

On to `Cc1nn(C2CCOCC2)c2ncc(Nc3n[nH]c4cccnc34)cc12` [Example 259, 3-methyl-N-(1H-pyrazolo[4,3-b]pyridin-3-yl)-1-tetrahydropyran-4-yl-pyrazolo[3,4-b]pyridin-5-amine], for which the concentration giving a half-maximal response (EC50) turned out to be 3700 nM.

`Cc1nn(C2CCCCC2)c2ncc(Nc3n[nH]c4cccnc34)cc12` [Example 260, 1-cyclohexyl-3-methyl-N-(1H-pyrazolo[4,3-b]pyridin-3-yl)pyrazolo[3,4-b]pyridin-5-amine]: the EC50 amounted to 440 nM.
